The values below come from publication PMC9525908, “α-Crystallin chaperone mimetic drugs inhibit lens γ-crystallin aggregation: Potential role for cataract prevention” (The Journal of Biological Chemistry, 2022).

Structures are written as SMILES. Residue numbers refer to the chain shown, from its start.

Assay [1] deals with T1, R14C mutant of HγD (Homo sapiens, UniProt P07320, R15C).
T1 construct: made in house; host or cells: E. coli BL21(DE3) pLysS
T1 sequence (P07320 1-174 R15C): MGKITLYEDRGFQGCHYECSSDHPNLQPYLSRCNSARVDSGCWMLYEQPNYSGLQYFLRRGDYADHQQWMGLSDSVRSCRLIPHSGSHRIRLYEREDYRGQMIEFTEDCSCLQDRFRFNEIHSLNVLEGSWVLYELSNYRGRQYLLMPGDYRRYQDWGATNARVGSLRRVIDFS
Nature of the assay: End-point turbidity assay (72 °C, 20 min) of R14C mutant. It is filed as biochemical. Particulars: 500 μM drug, 5 mM DTT, read-out: Inhibition of aggregation (%) R14C. The procedure: Aggregation kinetics assays at 600 nm in the presence of varying concentrations (0, 100, 200, 300, 400, and 500 μM) of our selected drugs were also performed on mutants of HγD (W43R, W42Q, R14C, and R58H) and MγS (F9S) at a concentration of 1 mg/ml in 50 mM K3PO4 buffer (pH 7.2) in a total volume of 100 μl. WT-HγD and WT-MγS crystallin served as controls for their respective mutant versions. For W43R mutant, aggregation assay was done at 42 °C for a total of 200 min. Absorbance was monitored every 10 min. For R14C and R58H mutants, end-point turbidity assay was done at 72 °C for 20 min. […] All the experiments were run in duplicates or triplicates.

For assay [2], the target named is T2, HγD (Homo sapiens, UniProt P07320).
T2 construct: made in house; host or cells: E. coli BL21(DE3) pLysS, pET3d vector
T2 sequence (P07320 1-174): T1 sequence (P07320 1-174 R15C) with C15R
Nature of the assay: Steady-state tryptophan fluorescence quenching, HγD. It is filed as binding. The procedure: (§1) Tryptophan fluorescence can be used for studying conformational changes resulting from protein–drug interactions ([44]). Fluorescence quenching of aromatic fluorophores in HγD and MγS by drugs C and G at three different temperatures (25, 30, and 37 °C) was studied in the presence of varying concentrations of drug C and G (0–250 μM). As shown in Figs. S5A and S6A, both HγD and MγS have a strong emission peak at 330 nm when excited at 295 nm. In both cases, quenching occurs with gradual addition of C and G at all three temperatures. Overall, quenching of Trp fluorescence emission is at highest at 25 °C (Figs. S5A and S6A) followed by 30 °C and lowest at 37 °C. […] The slope of plot Fo/F versus [Q] gives Ksv (Figs. S5B and S6B), whereas Kb is obtained from intercept of plot log (Fo/F − 1) versus log[Q] (Figs. S5C and S6C). […] For drug M, Kb values are of the order 10^2 M^−1 only. Fluorescence quenching can be either because of random collision between the molecules (dynamic interaction) or because of actual affinity between a protein pocket and drug (static interaction). Dynamic interactions are weaker and nonspecific in nature, whereas static interactions are stronger and more specific ([47]). For more information on the type of interaction, Kq was calculated and compared with the standard value of 2 × 10^10 M^−1s^−1, which is the maximum scatter collision quenching constant of various quenchers with biopolymers ([48]). […] Furthermore, the differential response of Ksv toward temperature change also clarifies the type of quenching. In static quenching, Ksv decreases with an increase in temperature because of the formation of complex with protein, which undergoes dissociation on increasing temperature.
(§2) To gauge the strength of the major forces involved in drug–protein complex formation, change in free energy was calculated using Gibbs–Helmholtz equation (Equation 3).(3) ΔG=-RTlnKb ([50]) where, R is gas constant and its value is […], T is absolute temperature (Kelvin) and Kb is binding constant whose value is already calculated using Equation 2. […] Free energy changes are negative at all three temperatures, being maximal at 25 °C. For C, G, and M interaction with HγD, ΔG values were −6.4, −7.9, and −1.9 kcal/mol (at 25 °C), that is, similar to those obtained by molecular docking as described later. These values also reflect the fact that drug M had the least protective effect on unfolding or aggregation of various γ-crystallins (Figs. 2 and S4).
(§3) All the steady-state fluorescence measurements were recorded on Fluoromax Spectrofluorometer (Horiba Scientific). For fluorescence quenching measurements, 10 μM of both HγD and MγS crystallins were titrated with varying concentrations of drugs C, G, and M (0–250 μM) at 25, 30, and 37 °C. These samples were excited at 295 nm, and the fluorescence emission was collected from 310 to 410 nm.

In assay [3] the target is T3, MγS (Mus musculus, UniProt O35486).
T3 construct: made in house; host or cells: E. coli BL21(DE3) pLysS, pET17b vector
T3 sequence (O35486 1-178): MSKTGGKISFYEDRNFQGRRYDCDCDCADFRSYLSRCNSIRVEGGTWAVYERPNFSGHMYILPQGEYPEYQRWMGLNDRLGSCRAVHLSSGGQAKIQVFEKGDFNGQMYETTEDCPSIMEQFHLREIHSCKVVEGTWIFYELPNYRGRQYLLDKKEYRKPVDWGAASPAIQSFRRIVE
Nature of the assay: Steady-state tryptophan fluorescence quenching, MγS. It is filed as binding. As to the method: as §1, §2, §3

Broadly, the inhibition is how much of the control response was suppressed. As for `Cc1cc(C(C#N)c2ccc(Cl)cc2)c(Cl)cc1NC(=O)c1cc(I)cc(I)c1O` (stereo not drawn) [drug C, Closantel], the inhibition at 500 µM in assay [1] was found to be 68%. The KSV in assay [2] (25 °C) amounted to 4.215 M^−1 ×10^3; in assay [2] (30 °C) it was 4.197 M^−1 ×10^3; in assay [2] (37 °C) it was 4.107 M^−1 ×10^3; in assay [3] (25 °C), 4.828 M^−1 ×10^3; in assay [3] (30 °C) it was 4.249 M^−1 ×10^3; in assay [3] (37 °C), 2.988 M^−1 ×10^3. Also, the Kq in assay [2] (25 °C) is given as 0.739 M^−1 s^−1 ×10^12; in assay [2] (30 °C), 0.736 M^−1 s^−1 ×10^12; in assay [2] (37 °C), 0.72 M^−1 s^−1 ×10^12; in assay [3] (25 °C), 0.847 M^−1 s^−1 ×10^12; in assay [3] (30 °C), 0.745 M^−1 s^−1 ×10^12; in assay [3] (37 °C), 0.524 M^−1 s^−1 ×10^12. Further, the ΔG in assay [2] (25 °C) is −6.4 kcalM^−1; in assay [2] (30 °C), −6.2 kcalM^−1; in assay [2] (37 °C) it was −5.9 kcalM^−1; in assay [2] (at 25 °C), -6.4 kcal/mol; in assay [3] (25 °C), −7.0 kcalM^−1; in assay [3] (30 °C) it was −6.2 kcalM^−1. Moreover, the ΔG in assay [3] (37 °C) is recorded as −4.1 kcalM^−1.

For `CC(C)=CCC[C@]1(C)C=Cc2c(O)c3c(c(CC=C(C)C)c2O1)O[C@]12C(=C[C@@H]4C[C@H]1C(C)(C)O[C@@]2(C/C=C(/C)C(=O)O)C4=O)C3=O` [drug G, Gambogic acid], the inhibition at 500 µM in assay [1] stood at 55%. Further, the KSV in assay [2] (25 °C) is listed as 10.252 M^−1 ×10^3; in assay [2] (30 °C), 8.440 M^−1 ×10^3; in assay [2] (37 °C), 7.880 M^−1 ×10^3; in assay [3] (25 °C) it was 7.283 M^−1 ×10^3; in assay [3] (30 °C) it was 8.034 M^−1 ×10^3; in assay [3] (37 °C), 4.905 M^−1 ×10^3. In addition, the Kq in assay [2] (25 °C) stood at 1.79 M^−1 s^−1 ×10^12; in assay [2] (30 °C), 1.47 M^−1 s^−1 ×10^12; in assay [2] (37 °C) it was 1.38 M^−1 s^−1 ×10^12; in assay [3] (25 °C) it was 1.37 M^−1 s^−1 ×10^12; in assay [3] (30 °C), 1.4 M^−1 s^−1 ×10^12; in assay [3] (37 °C), 0.86 M^−1 s^−1 ×10^12. Besides, the ΔG in assay [2] (25 °C) is −7.9 kcalM^−1; in assay [2] (30 °C), −7.7 kcalM^−1; in assay [2] (37 °C), −7.2 kcalM^−1; in assay [2] (at 25 °C), -7.9 kcal/mol; in assay [3] (30 °C), −5.6 kcalM^−1; in assay [3] (37 °C), −6.5 kcalM^−1.

For `O=C(O)CCCCCCCCCCCC[C@@H]1C=CCC1` [drug M, Chaulmoogric acid], the inhibition at 500 µM in assay [1] was 18%. Besides, the KSV in assay [2] (25 °C) was found to be 0.288 M^−1 ×10^3; in assay [2] (30 °C), 0.507 M^−1 ×10^3; in assay [2] (37 °C), 0.680 M^−1 ×10^3; in assay [3] (25 °C), 0.793 M^−1 ×10^3; in assay [3] (30 °C), 0.733 M^−1 ×10^3; in assay [3] (37 °C) it was 0.491 M^−1 ×10^3. Further, the Kq in assay [2] (25 °C) was 0.051 M^−1 s^−1 ×10^12; in assay [2] (30 °C), 0.08 M^−1 s^−1 ×10^12; in assay [3] (25 °C), 0.14 M^−1 s^−1 ×10^12; in assay [3] (30 °C), 0.13 M^−1 s^−1 ×10^12. Moreover, the ΔG in assay [2] (25 °C) is −1.9 kcalM^−1; in assay [2] (30 °C) it was −2.5 kcalM^−1; in assay [2] (37 °C), −2.6 kcalM^−1; in assay [2] (at 25 °C), -1.9 kcal/mol; in assay [3] (25 °C), −2.7 kcalM^−1; in assay [3] (30 °C), −2.6 kcalM^−1. The ΔG in assay [3] (37 °C) is recorded as −2.2 kcalM^−1.
